Laboratory results reported in patent US20220315554A1, “COMPOUNDS COMPRISING A […] LIGAND AND USE THEREOF” (priority 2019, published 2022).
Numbered stars: 1 amine (or outer) side, 2 acyl side, 3 side chain; on linkers, the order of the positions; unused ones are H or OH. Bridge positions count the residues as written; N and C are the ends. Peptide text beside a SMILES is read from it. * marks the point of attachment. X1 = O=C(O)CN1CCN(CC(=O)O)CCN(CC(=O)N2CCN(Cc3cc(C[*:1])cc(C[*:2])c3)CC2)CCN(CC(=O)O)CC1; Hexanoyl = CCCCCC(=O)*

Experiments:
5-HT2B (h) = 5-HT2B (h) (Homo sapiens, UniProt P41595); details: read-out: Ki Ref, reference compound (positive control)
NMDA = details: 10 μM
Human recombinant FAP [1] = target: T1, Human recombinant FAP (Homo sapiens, UniProt Q12884); assay: FRET-based FAP protease activity assay; format: biochemical; design: purchased R&D systems 3715-SE; details: pIC50 Category (Activity), recombinant human FAP, FRET substrate, 37° C.
T1 sequence (Q12884 1-760): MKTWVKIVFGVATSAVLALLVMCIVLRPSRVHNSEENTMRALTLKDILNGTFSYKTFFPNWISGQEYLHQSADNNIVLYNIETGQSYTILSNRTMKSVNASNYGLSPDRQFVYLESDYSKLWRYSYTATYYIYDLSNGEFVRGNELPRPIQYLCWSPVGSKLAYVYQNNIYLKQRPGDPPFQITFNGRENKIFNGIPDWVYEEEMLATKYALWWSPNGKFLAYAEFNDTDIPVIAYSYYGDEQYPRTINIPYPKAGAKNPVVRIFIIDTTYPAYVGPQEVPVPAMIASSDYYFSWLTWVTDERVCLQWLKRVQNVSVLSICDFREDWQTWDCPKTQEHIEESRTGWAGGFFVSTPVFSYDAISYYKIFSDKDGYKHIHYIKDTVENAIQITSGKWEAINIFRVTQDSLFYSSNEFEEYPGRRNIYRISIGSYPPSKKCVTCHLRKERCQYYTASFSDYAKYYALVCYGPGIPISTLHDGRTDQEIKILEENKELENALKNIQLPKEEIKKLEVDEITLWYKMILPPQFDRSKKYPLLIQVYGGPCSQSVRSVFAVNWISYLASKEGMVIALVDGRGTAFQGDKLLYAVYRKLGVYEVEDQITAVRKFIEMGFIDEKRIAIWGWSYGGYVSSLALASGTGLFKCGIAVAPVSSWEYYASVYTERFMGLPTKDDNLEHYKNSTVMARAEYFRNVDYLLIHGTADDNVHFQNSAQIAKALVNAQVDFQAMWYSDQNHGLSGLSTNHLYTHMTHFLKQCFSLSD

proteases [2] = target: T2, proteases (Hepatitis C virus genotype 1b, UniProt P26663, D1194V); assay: biochemical; details: read-out: Percentage inhibition (%)
T2 construct: BPS Biosciences (contract assay)

proteases [3] = target: T3, proteases (Hepatitis C virus genotype 1b, UniProt P26663, R1181K); assay: biochemical; details: read-out: Percentage inhibition (%)
T3 construct: BPS Biosciences (contract assay)

proteases [4] = target: T4, proteases (Hepatitis C virus genotype 1a, UniProt P27958, D1194V); assay: biochemical; details: read-out: Percentage inhibition (%)
T4 construct: BPS Biosciences (contract assay)

proteases [5] = target: T5, proteases (Hepatitis C virus genotype 1b, UniProt P26663); assay: biochemical; details: read-out: Percentage inhibition (%)
T5 construct: BPS Biosciences (contract assay)

proteases [6] = target: T6, proteases (Hepatitis C virus genotype 1b, UniProt P26663, R1181Q); assay: biochemical; details: read-out: Percentage inhibition (%)
T6 construct: BPS Biosciences (contract assay)

Na+ channel (site 2) = assay: SafetyScreen44: Na+ channel (site 2) (antagonist radioligand); format: binding; details: 10 μM
in vitro = details: rat, plasma
[7] = tested on: Ca2+ channel (L, dihydropyridine site); details: 10 μM
Recombinant human DPP4 = target: T7, Recombinant human DPP4 (Homo sapiens, UniProt P27487); assay: DPP4 protease activity assay; format: biochemical
T7 construct: purchased R&D systems 9168-SE

hERG potassium channel = hERG potassium channel (Homo sapiens, UniProt Q12809); assay: in vitro
[8] = Plasma stability assay, human plasma; format: in vitro ADME; details: 24 h incubation, 37° C., read-out: % intact compound remaining after incubation, Human plasma
[9] = Plasma stability assay, mouse plasma; format: in vitro ADME; details: 24 h incubation, 37° C., read-out: % intact compound remaining after incubation, Mouse plasma
[10] = target: T8, FAP-expressing human WI-38 fibroblasts (Homo sapiens, UniProt Q12884); assay: Competitive FACS binding assay; details: pIC50 Category (FACS), competition with 3 nM Cy5-labeled compound, WI-38 fibroblasts, 4° C., 1 hour
T8 construct: FAP-expressing human WI-38 fibroblasts (ECACC) were cultured in EMEM; host or cells: WI-38 human fibroblasts
T8 sequence (Q12884 1-760): T1 sequence (Q12884 1-760)
Protocol: Cells were analyzed in an Attune NxT flow cytometer. […]

AR (h) = AR (h) (Homo sapiens, UniProt P10275, T878A); assay: biochemical; details: read-out: % Inhibition of Specific Binding
BZD (central) = details: 10 μM
Human recombinant FAP [11] = target: T1, Human recombinant FAP; assay: Surface plasmon resonance (Biacore) assay; format: binding
recombinant human PREP = target: T9, recombinant human PREP (Homo sapiens, UniProt P48147); assay: PREP protease activity assay; format: biochemical
T9 construct: purchased R&D systems 4308-SE
T9 sequence (P48147 1-710): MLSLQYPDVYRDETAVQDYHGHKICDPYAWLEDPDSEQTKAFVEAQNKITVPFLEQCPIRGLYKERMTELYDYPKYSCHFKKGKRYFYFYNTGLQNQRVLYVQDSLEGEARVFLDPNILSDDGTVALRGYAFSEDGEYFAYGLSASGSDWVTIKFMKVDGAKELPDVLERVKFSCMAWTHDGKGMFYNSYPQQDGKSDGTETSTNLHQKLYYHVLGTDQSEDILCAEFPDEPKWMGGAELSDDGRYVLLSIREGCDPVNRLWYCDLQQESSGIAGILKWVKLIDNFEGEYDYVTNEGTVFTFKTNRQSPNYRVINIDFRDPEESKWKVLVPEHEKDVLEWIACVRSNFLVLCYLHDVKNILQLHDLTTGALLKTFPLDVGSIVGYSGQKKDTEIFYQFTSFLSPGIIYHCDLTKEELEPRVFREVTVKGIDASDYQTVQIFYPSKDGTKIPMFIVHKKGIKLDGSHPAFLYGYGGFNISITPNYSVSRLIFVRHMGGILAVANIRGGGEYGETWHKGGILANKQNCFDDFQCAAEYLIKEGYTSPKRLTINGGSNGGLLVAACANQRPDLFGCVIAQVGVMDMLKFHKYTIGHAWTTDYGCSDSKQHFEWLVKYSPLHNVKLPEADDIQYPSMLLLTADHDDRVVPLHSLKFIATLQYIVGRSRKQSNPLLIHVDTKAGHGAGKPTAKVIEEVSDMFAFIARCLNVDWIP

KV channel = details: 10 μM
in vivo = details: rat, plasma, intravenous; for Vd: rat plasma

For `COc1cc(CC(C)N)c(OC)cc1I` (racemic) [(±)DOI], the Ki (5-HT2B (h)) was 4.2 nM.
In the case of `CCCCCC(=O)N[C@H]1CSCc2cc(cc(CN3CCN(C(=O)CN4CCN(CC(=O)O)CCN(CC(=O)O)CCN(CC(=O)O)CC4)CC3)c2)CSC[C@@H](C(=O)N[C@@H](CC(=O)O)C(N)=O)NC(=O)[C@H](Cc2ccccc2)NC(=O)[C@H](CCC(N)=O)NC(=O)[C@H]([C@@H](C)O)NC(=O)[C@@H]2CCCN2C(=O)[C@@H]2CCCN2C1=O` [3BP-3407, Hex-[Cys(tMeBn(DOTA-PP))-Pro-Pro-Thr-Gln-Phe-Cys]-Asp-NH2] (Hexanoyl-CPPTQFCD-NH2; linker 1-7 via X1), the “% Inhibition of Specific Binding” value (NMDA) is reported as 9%, the IC50 (Human recombinant FAP [1]) is reported as < 10 nM and the inhibition at 1 µM (proteases [2]) is reported as 1%. It also gave an inhibition at 10 µM (proteases [2]) of -6%, an inhibition at 1 µM (proteases [3]) of -2% and an inhibition at 10 µM (proteases [3]) of 5%. It also gave an inhibition at 1 µM (proteases [4]) of 1%, an inhibition at 10 µM (proteases [4]) of -68% and an inhibition at 1 µM (proteases [5]) of 1%. It also gave an inhibition at 10 µM (proteases [5]) of 5%, an inhibition at 1 µM (proteases [6]) of 0% and an inhibition at 10 µM (proteases [6]) of 2%. The “% Inhibition of Specific Binding” value (Na+ channel (site 2)) was −7%, the remaining at 24 h, 9.8 µM (in vitro) was 100% and the “% Inhibition of Specific Binding” value [7] was 42%. The IC50 (Recombinant human DPP4) was > 1000 nM, the inhibition at 10 µM (hERG potassium channel) was 2% and the remaining at 24 h, 9.8 µM [8] was 100%. For the same compound, the remaining at 24 h, 9.8 µM [9] was 79%, the IC50 [10] was < 10 nM and the inhibition at 10 µM (AR (h)) was 3%. The “% Inhibition of Specific Binding” value (BZD (central)) was −9%, the Kd (Human recombinant FAP [11]) was < 10 nM and the IC50 (recombinant human PREP) was > 1000 nM. The “% Inhibition of Specific Binding” value (KV channel) was −5%.
With `CCCCCC(=O)N[C@H]1CSCc2cc(CSCCNC(=O)CN3CCN(CC(=O)O)CCN(CC(=O)O)CCN(CC(=O)O)CC3)cc(c2)CSC[C@@H](C(=O)O)NC(=O)[C@H](Cc2ccccc2)NC(=O)[C@H](CCC(N)=O)NC(=O)[C@H]([C@@H](C)O)NC(=O)[C@@H]2CCCN2C(=O)[C@@H]2CCCN2C1=O` [3BP-3554, Hex-[Cys(tMeBn(DOTA-AET))-Pro-Pro-Thr-Gln-Phe-Cys]-OH] the “% Inhibition of Specific Binding” value (NMDA) was 1%, the IC50 (Human recombinant FAP [1]) was < 10 nM and the inhibition at 1 µM (proteases [2]) was -2%. The inhibition at 10 µM (proteases [2]) was -17%, the inhibition at 1 µM (proteases [3]) was -1% and the inhibition at 10 µM (proteases [3]) was 0%. The inhibition at 1 µM (proteases [4]) was -39%, the inhibition at 1 µM (proteases [5]) was -5% and the inhibition at 10 µM (proteases [5]) was -9%. The inhibition at 1 µM (proteases [6]) was 0%, the inhibition at 10 µM (proteases [6]) was -5% and the “% Inhibition of Specific Binding” value (Na+ channel (site 2)) was 14%. The remaining at 24 h, 9.8 µM (in vitro) was 100%, the “% Inhibition of Specific Binding” value [7] was 54% and the IC50 (Recombinant human DPP4) was > 1000 nM. For the same compound, the inhibition at 10 µM (hERG potassium channel) was 6%, the remaining at 24 h, 9.8 µM [8] was 100% and the IC50 [10] was < 10 nM. For the same compound, the inhibition at 10 µM (AR (h)) was -5%, the “% Inhibition of Specific Binding” value (BZD (central)) was 5% and the Kd (Human recombinant FAP [11]) was < 10 nM. It also gave an AUC(0-inf) (in vivo; 2 nmol/kg) of 0.0081 µM·h, a C0 (in vivo; 2 nmol/kg) of 10.3 nM and a clearance (in vivo; 2 nmol/kg) of 4.13 mL/min/kg. The half-life (in vivo; 2 nmol/kg) was 54 min, the Vd (in vivo; 2 nmol/kg, Vss, 2 nmol/kg) was 0.28 L/kg and the Vd (in vivo; 2 nmol/kg, Vz) was 0.32 L/kg. For the same compound, the AUC(0-inf) (in vivo; 20 nmol/kg) was 0.069 µM·h, the C0 (in vivo; 20 nmol/kg) was 111 nM and the clearance (in vivo; 20 nmol/kg) was 4.85 mL/min/kg. The half-life (in vivo; 20 nmol/kg) was 50 min, the Vd (in vivo; 20 nmol/kg, Vss, 20 nmol/kg) was 0.3 L/kg and the Vd (in vivo; 20 nmol/kg, Vz) was 0.35 L/kg. The AUC(0-inf) (in vivo; 200 nmol/kg) was 0.726 µM·h, the C0 (in vivo; 200 nmol/kg) was 1480 nM and the clearance (in vivo; 200 nmol/kg) was 4.58 mL/min/kg. It also gave a half-life (in vivo; 200 nmol/kg) of 63 min, a Vd (in vivo; 200 nmol/kg, Vss, 200 nmol/kg) of 0.17 L/kg and a Vd (in vivo; 200 nmol/kg, Vz) of 0.42 L/kg. The IC50 (recombinant human PREP) was > 1000 nM and the “% Inhibition of Specific Binding” value (KV channel) was 4%.
In the case of `CCCCCC(=O)N[C@H]1CSCc2cc(CSCCNC(=O)CN3CCN4CCN5CCN(CC3)CC(=O)[O][Lu]([O]C(=O)C4)[O]C(=O)C5)cc(c2)CSC[C@@H](C(=O)O)NC(=O)[C@H](Cc2ccccc2)NC(=O)[C@H](CCC(N)=O)NC(=O)[C@H]([C@@H](C)O)NC(=O)[C@@H]2CCCN2C(=O)[C@@H]2CCCN2C1` [3BP-3624, Lutetium-Complex of Hex-[Cys(tMeBn(DOTA-AET))-Pro-Pro-Thr-Gln-Phe-Cys]-OH], the IC50 (Human recombinant FAP [1]) is reported as < 10 nM, the remaining at 24 h, 9.8 µM (in vitro) is reported as 100% and the remaining at 24 h, 9.8 µM [8] is reported as 100%. The remaining at 24 h, 9.8 µM [9] was 100%, the IC50 [10] was < 10 nM and the Kd (Human recombinant FAP [11]) was < 10 nM.
